Literature values, collected in patent US20250041322A1, “HEAT STRESS RELIEVING AGENT” (Hayashibara Co., Ltd., priority 2018, published 2025).

Water solubility, comparison in words: more water-soluble than hesperidin
Structure (SMILES): COc1ccc(C2CC(=O)c3c(O)cc(O[C@@H]4OC(CO)[C@@H](O)C(O)C4O)cc3O2)cc1O (stereo partly drawn) [7-O-β-glucosyl hesperetin]
